These results are taken from PubChem BioAssay AID1259411 (Chemical Carcinogenesis Research Information System (CCRIS), 2018).

Activity calls are given as the source filed them. The rule behind the calls is not given here.

The series relates to rodent carcinogenicity bioassays, tumor incidence. Description: CCRIS carcinogenicity studies. The settings on record: Dose: 0, Dose: 0. Put shortly: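 NCI-built, expert-reviewed records of carcinogenicity and related test outcomes (mutagenicity, tumor promotion/inhibition) compiled from published and report sources, historical span 1985-2011, not updated.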

Regarding `CCc1ccc(C(c2ccc(CC)cc2)C(Cl)Cl)cc1`, the carcinogen call by setting is: (Species: MOUSE, Strain/Sex: B6C3F1/FEMALE, Route: ORAL, 5000 IN DIET FOR FIRST 48 WK FOLLOWED BY 1000 PPM IN DIET FOR LAST 57 WK, 10000 PPM IN DIET FOR 48 WK FOLLOWED BY 300, 5000 IN DIET FOR FIRST 48 WK FOLLOWED BY 1000 PPM IN DIET FOR LAST 57 WK, 10000 PPM IN DIET FOR 48 WK FOLLOWED BY 300, Tumor Site: Type of Lesion: LIVER: HEPATOCELLULAR CARCINOMA OR ADENOMA) “equivocal”; (Species: MOUSE, Strain/Sex: B6C3F1/MALE, Route: ORAL, 2,500, 5,000 PPM IN DIET FOR 105 WK (STUDY DURATION: 105 WK), 2,500, 5,000 PPM IN DIET FOR 105 WK (STUDY DURATION: 105 WK)) “inactive; negative”; (Species: RAT, Strain/Sex: F344/FEMALE, Route: ORAL, 3,500, 7,000 PPM IN DIET FOR 105 WK (STUDY DURATION: 105 WK), 3,500, 7,000 PPM IN DIET FOR 105 WK (STUDY DURATION: 105 WK)) “inactive; negative”; (Species: RAT, Strain/Sex: F344/MALE, Route: ORAL, 3,500, 7,000 PPM IN DIET FOR 105 WK (STUDY DURATION: 105 WK), 3,500, 7,000 PPM IN DIET FOR 105 WK (STUDY DURATION: 105 WK)) “inactive; negative”.

`COc1c(Cl)c(Cl)c(Cl)c(Cl)c1Cl`: the carcinogen call runs as follows: (Species: MOUSE, Strain/Sex: B6C3F1/FEMALE, Route: GAVAGE, 20, 40 MG/KG IN CORN OIL 5 D/WK FOR 104 WK (STUDY DURATION: 105 WK), 20, 40 MG/KG IN CORN OIL 5 D/WK FOR 104 WK (STUDY DURATION: 105 WK)) “inactive; negative”; (Species: MOUSE, Strain/Sex: B6C3F1/MALE, Route: GAVAGE, 20, 40 MG/KG IN CORN OIL 5 D/WK FOR 104 WK (STUDY DURATION: 105 WK), 20, 40 MG/KG IN CORN OIL 5 D/WK FOR 104 WK (STUDY DURATION: 105 WK), Tumor Site: Type of Lesion: ADRENAL MEDULLA: BENIGN PHEOCHROMOCYTOMA, LIVER: HEMANGIOSARCOMA) “active; positive”; (Species: RAT, Strain/Sex: F344/FEMALE, Route: GAVAGE, 20, 40 MG/KG IN CORN OIL 5 D/WK FOR 103 WK (STUDY DURATION: 104 WK), 20, 40 MG/KG IN CORN OIL 5 D/WK FOR 103 WK (STUDY DURATION: 104 WK), Tumor Site: Type of Lesion: ADRENAL MEDULLA: BENIGN PHEOCHROMOCYTOMA) “equivocal”; (Species: RAT, Strain/Sex: F344/MALE, Route: GAVAGE, 10, 20, 40 MG/KG IN CORN OIL 5 D/WK FOR 103 WK (STUDY DURATION: 104 WK), 10, 20, 40 MG/KG IN CORN OIL 5 D/WK FOR 103 WK (STUDY DURATION: 104 WK), Tumor Site: Type of Lesion: ADRENAL MEDULLA: BENIGN PHEOCHROMOCYTOMA) “active; positive”.

`CC/C=C/C=C/C=C/C=C/C=C/OC[C@@H](O)CO`: the carcinogen call by setting is: (Species: MOUSE, Strain/Sex: ICR/FEMALE, Route: INTRAPERITONEAL, 2.6 MG/KG IN DMSO ON D 1 AND D 3 THEN 0, 5.2 MG/KG IN DMSO ON D 7, 10, 14 AND (STUDY DURATION: 21 MO), 2.6 MG/KG IN DMSO ON D 1 AND D 3 THEN 0, 5.2 MG/KG IN DMSO ON D 7, 10, 14 AND (STUDY DURATION: 21 MO)) “inactive; negative”; (Species: MOUSE, Strain/Sex: ICR/MALE, Route: INTRAPERITONEAL, 2.6 MG/KG IN DMSO ON D 1 AND D 3 THEN 0, 5.2 MG/KG IN DMSO ON D 7, 10, 14 AND (STUDY DURATION: 21 MO), 2.6 MG/KG IN DMSO ON D 1 AND D 3 THEN 0, 5.2 MG/KG IN DMSO ON D 7, 10, 14 AND (STUDY DURATION: 21 MO), Tumor Site: Type of Lesion: LIVER: ADENOMA, CARCINOMA, LUNG: ADENOMA, CARCINOMA, GLANDULAR STOMACH: ADENOCARCINOMA, SUBCUTANEOUS TISSUE: FIBROSARCOM, Tumor Site: Type of Lesion: LIVER: ADENOMA, CARCINOMA, LUNG: ADENOMA, CARCINOMA, GLANDULAR STOMACH: ADENOCARCINOMA, SUBCUTANEOUS TISSUE: FIBROSARCOM) “active; positive”; (Species: RAT, Strain/Sex: F344/MALE, Route: INTRARECTAL, 5, 10 NANOMOLAR IN 0.5 ML T-E BUFFER AND METHANOL SATURATED WITH ARGON 1/WK FOR 85 WK (STUDY DURATION: 28 MO), 5, 10 NANOMOLAR IN 0.5 ML T-E BUFFER AND METHANOL SATURATED WITH ARGON 1/WK FOR 85 WK (STUDY DURATION: 28 MO)) “inactive; negative”; (Species: RAT, Strain/Sex: F344/MALE, Route: INTRARECTAL, 14 MG/KG IN DMSO: EMULPHOR-SALINE 34WK FOR 9 WK THEN 2/WK FOR 12 WK AND 1/WK FOR 50 WK (STUDY DURATION: 92 WK)) “inactive; negative”.

As to `Nc1cc([N+](=O)[O-])ccc1C(=O)O`, the carcinogen call was “inactive; negative” (Species: MOUSE, Strain/Sex: B6C3F1/FEMALE, Route: ORAL, 0.46, 1.0% OF DIET, TWA, 0.46, 1.0% OF DIET, TWA); “inactive; negative” (Species: MOUSE, Strain/Sex: B6C3F1/MALE, Route: ORAL, 0.46, 1.0% OF DIET, TWA, 0.46, 1.0% OF DIET, TWA); “inactive; negative” (Species: RAT, Strain/Sex: F344/FEMALE, Route: ORAL, 0.46, 1.5% OF DIET, TWA, 0.46, 1.5% OF DIET, TWA); “inactive; negative” (Species: RAT, Strain/Sex: F344/MALE, Route: ORAL, 0.46, 1.5% OF DIET, TWA, 0.46, 1.5% OF DIET, TWA).

Consider `CS(=O)CC(=O)c1ccccn1` (stereo not given), for which the carcinogen call reads like this: (Species: MOUSE, Strain/Sex: B6C3F1/FEMALE, Route: ORAL, 40, 240, 600 MG/KG IN DIET FOR 80 WK (STUDY DURATION: 80 WK), 40, 240, 600 MG/KG IN DIET FOR 80 WK (STUDY DURATION: 80 WK), Tumor Site: Type of Lesion: LUNG: ALVEOLOGENIC ADENOCARCINOMA) “active; positive”; (Species: MOUSE, Strain/Sex: CF1/MALE, Route: ORAL, 40, 240, 600 MG/KG IN DIET FOR 80 WK (STUDY DURATION: 80 WK), 40, 240, 600 MG/KG IN DIET FOR 80 WK (STUDY DURATION: 80 WK)) “inactive; negative”; (Species: RAT, Strain/Sex: WISTAR/FEMALE, Route: ORAL, 40, 240, 600 MG/KG IN DIET FOR 104 WK (STUDY DURATION: 104 WK), 40, 240, 600 MG/KG IN DIET FOR 104 WK (STUDY DURATION: 104 WK)) “inactive; negative”; (Species: RAT, Strain/Sex: WISTAR/MALE, Route: ORAL, 40, 240, 600 MG/KG IN DIET FOR 104 WK (STUDY DURATION: 104 WK), 40, 240, 600 MG/KG IN DIET FOR 104 WK (STUDY DURATION: 104 WK), Tumor Site: Type of Lesion: LIVER: HEPATOCELLULAR ADENOMA) “active; positive”.
